Test results published in publication PMC7696940, “Effects of Rationally Designed Physico-Chemical Variants of the Peptide PuroA on Biocidal Activity towards Bacterial and Mammalian Cells” (International Journal of Molecular Sciences, 2020).
In brackets after ≈: the same amount, converted by molar mass. Where no end group is shown, it is not given here.

Legend:
[1] = tested on: HeLa cells; type: cell-based, human; conditions: MTT, 24 h, peptide up to 250 µg/mL; concentration causing 50% cell growth inhibition; mean of triplicate assays
Description: (§1) Cytotoxicity to human cervical carcinoma HeLa cells and mouse fibroblastic NIH-3T3 cells was determined using the MTT assay as per Scudiero et al. with minor modifications. The cells were maintained in Dulbecco’s Modified Eagle Medium (DMEM) with 10% foetal bovine serum (FBS) and 1% penicillin G in a humidified incubator (Heraeus Hera Cell incubator) at 37 °C with 5% CO2. They were seeded in 96-well microtiter plates at 1 × 10^4 cells/well and allowed to adhere for 24 h in the incubator. The medium was removed, and adherent cells were washed with PBS. Fresh media containing serially diluted peptides in PBS (final concentrations 4 to 250 µg/mL) were added and the cells incubated for 24 h. Cells without peptides were used as negative controls. Following incubations, the medium was removed, and adherent cells were washed with PBS. 150 µL of MTT (diluted to 0.33 mg/mL in DMEM) and the plates incubated for 3 h. The precipitated formazan was dissolved in 100 µL of DMSO and its absorbance measured at 570 nm. Cell viability was determined as: (OD570 nm peptide treated cells/(OD570 nm untreated cells) × 100. Positive cytotoxicity was defined as peptide concentration that causes 50% growth inhibition in a cell line (IC50). All tests were carried out in triplicate.

[2] = tested on: E. coli ATCC25922; type: cell-based, Escherichia coli; conditions: MHB; for MIC E. coli, No NaCl: 0 mM NaCl; for MIC E. coli, No NaCl / MIC E. coli, With 50mM NaCl / MIC E. coli, With 100mM NaCl / MIC E. coli, With 150mM NaCl: triplicate, mode; for MIC E. coli ATCC25922: 37 °C overnight, A595, mode of three independent experiments
Description: (§2) The activity of peptides was determined against the Gram-positive Staphylococcus aureus (ATCC 25923), and the Gram-negative Escherichia coli (ATCC 25922) and Pseudomonas aeruginosa (ATCC 9027) bacteria. Selected peptides were also tested against two clinical isolates of methicillin-resistant Staphylococcus aureus (MRSA), M173525 and M180920, kindly provided by Dr P. B. Ward (Microbiology Department, Austin and Repatriation Medical Centre, Heidelberg West, Victoria, Australia). The Minimum inhibitory concentration (MIC) of peptides was determined by the microtitre broth dilution method, as described in Phillips et al.. Briefly, bacteria were grown in Mueller-Hinton Broth (MHB) at 37 °C overnight with shaking (200 rpm). The cultures were adjusted to 0.5 McFarland turbidity standard (approximately 1 × 10^8 colony forming units (CFU)/mL), then diluted 1:100 in MHB (1 × 10^6 CFU/mL). A total of 75 μL of these suspensions were mixed with 25 μL of peptide solutions (final concentrations 250 to 0.5 μg/mL) and the microtitre plates incubated overnight at 37 °C. Positive growth controls (inoculum and MHB, with no peptide) and sterility controls (0.01% glacial acetic) were also included. Post-incubations, the absorbance of cultures at 595 nm was measured using a microplate reader (POLARstar Omega, Germany). […] To evaluate salt sensitivity of peptides up to physiological levels (150 mM NaCl), overnight cultures of S. aureus and E. coli adjusted to 0.5 McFarland turbidity standard were diluted 1:100 in MHB containing 0, 50, 100 or 150 mM NaCl, and the MICs of peptides determined as above. All tests were conducted in triplicate. The results are shown as the mode of values obtained.

[3] = tested on: S. aureus ATCC25923; type: cell-based, Staphylococcus aureus; conditions: MHB; for MIC S. aureus, No NaCl: 0 mM NaCl; for MIC S. aureus, No NaCl / MIC S. aureus, With 50mM NaCl / MIC S. aureus, With 100mM NaCl / MIC S. aureus, With 150mM NaCl: triplicate, mode; for MIC S. aureus ATCC25923: 37 °C overnight, A595, mode of three independent experiments
Description: as §2

[4] = tested on: NIH-3T3 cells; test: Cytotoxicity, MTT assay; type: cell-based, mouse; conditions: 24 h; for IC50 NIH-3T3: peptide up to 250 µg/mL, concentration causing 50% cell growth inhibition, mean of triplicate assays; for Cytotoxicity to NIH-3T3 mouse fibroblasts (in words): up to 250 µg/mL
Description: as §1

[5] = tested on: C. albicans FRR 5580; type: cell-based, Candida albicans; conditions: PDB, overnight; mode of three independent experiments
Description: The assay was carried out as per Alfred et al.. Candida albicans (FRR 5580) was grown in potato dextrose broth (PDB; Difco-BD, Bergen County, NJ, USA) overnight at 30 °C with shaking (200 rpm) until exponential phase, then adjusted to 0.5 McFarland turbidity standard (approximately 1 × 10^6 cells/mL) and diluted 1:200 with PDB to 0.5 − 2 × 10^3 cells/mL. Peptides in 25 μL volumes were mixed with 75 μL of the yeast suspensions. The controls were included as above. The plates were incubated overnight and absorbance was recorded. All the tests were conducted in triplicate.

[6] = tested on: pBlueScript SK+ plasmid DNA; test: In vitro DNA-binding assay (gel retardation); conditions: 100 ng pBlueScript SK+, peptide 8-500 µg/mL, 1 h room temperature, 1% agarose
Description: The ability of peptides to bind to purified DNA (indicative of in vivo DNA binding potential) was tested by the modified gel retardation assay developed by Alfred et al.. The DNA of pBlueScript SK+ (100 ng) was incubated with peptides (to final concentrations of 8, 16, 32, 64, 125, 250 or 500 µg/mL) in 15 µL volumes made with sterile MilliQ water, the held at room temperature for 1h. Loading dye was added to each sample and the samples electrophoresed on 1% agarose gels. The gels were then immersed in ethidium bromide ([…]) then visualized and imaged

[7] = tested on: porcine trypsin and proteinase K; test: Proteases stability assay; type: in vitro ADME, porcine; Tritirachium album; conditions: 1000 µg peptide with 50 µg protease (20:1 w/w), porcine trypsin or proteinase K, PBS pH 7.4, 37 °C, 3 h; read-out activity of supernatant on E. coli and S. aureus; triplicate
Description: The effect of two well-studied proteases, porcine trypsin and proteinase K from Tritirachium album, on the activity of peptides was investigated as per Carmona et al.. Briefly, 1000 µg of a peptide was incubated with 50 µg of a protease (20:1 w/w) at 37 °C for 3 h in phosphate buffered saline PBS (pH 7.4). The enzyme activity was then terminated by heating (70 °C, 5 min) and the samples centrifuged at 12,000× g. The activity of the supernatant on E. coli and S. aureus was tested as above, in triplicate.

[8] = tested on: E. coli and S. aureus; test: Salt tolerance (MICs under 0-150 mM NaCl, summary); type: cell-based, Escherichia coli; Staphylococcus aureus; design: key: Up to 50 mM: no effects on antibacterial activity up to 50 mM NaCl but increase in the MICs for E. coli and S. aureus at 100 mM NaCl; Intolerant: not resistant to salt effects even at 50 mM NaCl; Up to 150 mM: no effects on antibacterial activity up to 150 mM NaCl; conditions: MICs for E. coli and S. aureus in MHB with 0, 50, 100 or 150 mM NaCl
Description: as §2

[9] = tested on: P. aeruginosa ATCC9027; type: cell-based, Pseudomonas aeruginosa; conditions: MHB, 37 °C overnight, A595; mode of three independent experiments
Description: as §2

Compound	IC50 HeLa [1] [µg/mL]	MIC E. coli, No NaCl [2] [µg/mL]	MIC E. coli, With 50mM NaCl [2] [µg/mL]	MIC E. coli, With 100mM NaCl [2] [µg/mL]	MIC E. coli, With 150mM NaCl [2] [µg/mL]	MIC E. coli ATCC25922 [2] [µg/mL]	MIC S. aureus, No NaCl [3] [µg/mL]	MIC S. aureus, With 50mM NaCl [3] [µg/mL]	MIC S. aureus, With 100mM NaCl [3] [µg/mL]	MIC S. aureus, With 150mM NaCl [3] [µg/mL]	MIC S. aureus ATCC25923 [3] [µg/mL]	IC50 NIH-3T3 [4] [µg/mL]	Cytotoxicity to NIH-3T3 mouse fibroblasts (in words) [4]	MIC C. albicans FRR 5580 [5] [µg/mL]	Binding to DNA in vitro (concentration inhibiting plasmid migration) [6] [µg/mL]	Binding to DNA in vitro (concentration inhibiting plasmid migration) ([6]; listed as cyclized PuroA) [µg/mL]	Protease Stability [7]	Salt Tolerance [8]	MIC P. aeruginosa ATCC9027 [9] [µg/mL]
CC(C)[C@@H]1NC(=O)[C@@H]2CCCN2C(=O)[C@H](Cc2ccccc2)NC(=O)CNC(=O)[C@H](CCCCN)NC(=O)[C@H](Cc2c[nH]c3ccccc23)NC(=O)[C@H](Cc2c[nH]c3ccccc23)NC(=O)[C@H](CCCCN)NC(=O)[C@H](Cc2c[nH]c3ccccc23)NC(=O)[C@H](Cc2c[nH]c3ccccc23)NC(=O)[C@H](CCCNC(=N)N)NC(=O)[C@H](Cc2c[nH]c3ccccc23)NC(=O)[C@H]([C@@H](C)O)NC1=O [Cyclic PuroA]	>250	250 (≈ 135 µM)	> 250	> 250	> 250	250 (≈ 135 µM)	125 (≈ 67.7 µM)	250 (≈ 135 µM)	250 (≈ 135 µM)	> 250	125 (≈ 67.7 µM)	>250	no cytotoxicity	>250	≥ 64	64	Unstable	Intolerant	>250
RRRRWRWWRWWRR-NH2 [Peptide R8]	250	64	64	64	64	–	64	64	64	64	–	>250	no cytotoxicity	250	≥ 64	–	Unstable	Up to 150 mM	64
WRWWKWWK-NH2 [Peptide W8]	250	4	4	4	4	4	8	8	8	8	8	>250	no cytotoxicity	64	≥ 16	–	Unstable	Up to 150 mM	32
